The results in this text go back to patent US6852696B2, “Inhibitors of glycosaminoglycans” (The University of Texas System, priority 1999, dated 2005).

For one test, the system named is HA. Nature of the test: Adhesion of 35S-labeled B16-F10 melanoma cells to HA-coated plates. Format: cell-based, mouse. The protocol: Three different Pep-1 derivatives were compared for their biological activities at the same concentration in terms of the molarity (150 μM) of the 16-mer Pep-1 peptide sequence. […] Data shown are the means+/−S.D. of % binding from quadruplicate samples. Asterisks indicate statistically significant differences (**p<0.01 by two-tailed Student's t-test).
FIGS. 9A-G. DC-associated HA and DC-dependent T cell proliferation. (A) DO11.10 T cells were cultured with y-irradiated splenic DC and/or OVA323-339 (2 μg/ml) in the presence of intact bPG (250 μg/ml), heat-denatured bPG, or PBS alone. Data shown are the means+/−s.d. (n=3) of ^3H-thymidine uptake. (B) DO11.10 T cells were cultured with the indicated numbers of splenic DC and OVA323-339 in the presence of Pep-1 (300 μM) (open circles), RP (closed circles), or PBS alone (squares). (C) Pep-1 (open circles) or PEG-conjugated Pep-1 (open triangles) were compared at the indicated concentrations (in terms of the molarity of the 12-mer Pep-1 sequence) for their abilities to inhibit the adhesion of ^35S-labeled B16 melanoma cells onto the HA-coated plates (Mummert et al. J. Exp. Med. 192:769-779, 2000). […] Statistically significant differences assessed by a two-tailed Student's t-test for comparing two groups or by analysis of variance (ANOVA) followed by LSD for multiple comparisons are indicated by asterisks (*P<0.05, **P<0.01).

Another test concerns B16-F10 melanoma cells. As to the kind of experiment: Experimentally induced lung metastasis of i.v. infused B16-F10 melanoma cells. As to conditions: simultaneous i.v. injection with B16-F10 cells. Format: in vivo, C57BL/6 mice. On the procedure: FIGS. 4A-C. Impact of Pep-1 on lung metastasis of melanoma. (FIG. 4A) B16-F10 melanoma cells were suspended (4×10^5 cells/ml) in PBS containing Pep-1 monomer (2 or 3 mg/ml) (circles) or 2% DMSO alone (triangles). C57BL/6 mice received i.v. injection of these cell suspensions (500 μl/animal) and were examined for survival. Data shown are the cumulative survival curves from four independent experiments (n=37 for Pep-1 and n=20 for PBS control). […] (FIG. 4B) B16-F10 melanoma cells (1×10^5 cells/animal) were s.c. injected into the back of C57BL/6 mice. Pep-1 or RP (40 μg/injection) was injected locally into the tumor inoculation sites 0. 3. and 6 days after tumor injection. Data shown are the means+/−s.e.m. (n=10) of tumor sizes and tumor weights measured 10 days after tumor inoculation. (FIG. 4C) B16-F10 melanoma cells (2×10^5 cells/well) were cultured in the presence of the indicated concentrations of Pep-1 (closed circles) or PR (open circles). Data shown are the means+/−s.e.m.(n=3) of ^3H-thymidine uptake at 24 hr.
In the model, melanoma cells and Pep-1 (or random peptide control or PBS alone) were injected together intravenously into syngeneic C57BL/6 mice and lung metastasis was examined macroscopically and by following-up the survival of mice. […] The inventors will also examine the prophylactic and therapeutic potentials of multimeric Pep-1 formulations and other chemically modified Pep-1 derivatives using this animal model of melanoma metastasis.

The next test deals with Langerhans cells (LC). As to the kind of experiment: Hapten (DNFB)-triggered LC emigration from the epidermis. Format: in vivo, BALB/c mice. The following applies: two local injections before DNFB. The protocol: FIG. 3. Impact of multimeric Pep-1 derivatives on hapten-induced LC migration. BALB/c mice received two local injections of the indicated Pep-1 derivatives in the right ear (closed circles) and the indicated RP derivatives in the left ear 24 and 3 hours before topical application of 0.5% DNFB on both ears. All the peptides were administered at the identical dose in terms of the molarity ([…]) of the 16-mer Pep-1 peptide sequence, i.e., 40 μg/injection/ear for monomeric Pep-1 and RP, […] for dimeric Pep-1 and RP, or 160 μg/injection/ear for PEG-conjugated tetrameric Pep-1 and RP. Ear skin samples were harvested at the indicated time points after DNFB painting and examined for surface densities of IA^+ LC. Data shown are the means+/−s.e.m.(n=3) of % LC emigration as calculated by dividing from the formula: [(LC number before DNFB application−LC number after DNFB application)/LC number before DNFB application]×100. Asterisks indicate statistically significant differences between the Pep-1 and the RP panels (**p<0.01 by two-tailed Student's t-test).
Pep-1 and its dimeric and tetrameric derivatives were compared for their in vivo activities to prevent hapten-triggered LC emigration from the epidermis.

Regarding GAHWQFNALTVR [Pep-1], the “blocking of B16-F10 adhesion to HA-coated plates” value with HA is “blocked efficiently”. In addition, the “inhibition of HA-mediated cell adhesion” value in the test on HA (150 μM in terms of molarity of the Pep-1 peptide sequence) is listed as “only modest inhibition”. Also, the “survival of recipient animals” value in the test on B16-F10 melanoma cells is on record as “prolonged the survival of recipient animals significantly”; in the test on B16-F10 melanoma cells (listed as Pep-1 monomer), “Statistically significant difference (p<0.01 by the log-rank test)”. The “extent of lung metastasis” value in the test on B16-F10 melanoma cells (vs RP control) is “reduced the extent of lung metastasis significantly”. Moreover, the “inhibition of LC emigration” value in the test on Langerhans cells (LC) (24 hr after DNFB application) is “inhibited LC emigration almost completely”; in the test on Langerhans cells (LC) (48 hr after DNFB application), “kinetics comparable to those observed in the control group receiving random peptide (RP) injections”; in the test on Langerhans cells (LC) (72 hr after DNFB application) it was “kinetics comparable to those observed in the control group receiving random peptide (RP) injections”.
